{"source": "patent US5096924A", "about": "“Anticancer antibiotic MI43-37F11 substance” (501 Azidan Hojin Biseibutsu Kagaku Kenkyu Kai, priority 1989, dated 1992)", "origin": "cited, not measured here", "test_system": "cyclic adenosine monophosphate (CAMP) phosphodiesterase", "settings": "disclosed in Japanese Kokai No. 71076/78; cited from earlier work"}
{"smiles": "COc1cc2cc(CO)oc(=O)c2c(O)c1OC", "note": "[3-hydroxymethyl-6,7-dimethoxy-8-hydroxyisocumarin]", "values": [{"measurement": "inhibitory activity to cyclic adenosine monophosphate (CAMP) phosphodiesterase", "result": "inhibitory activity"}]}
{"smiles": "COc1c(O)cc2cc(CO)oc(=O)c2c1O", "note": "[3-hydroxymethyl-6,8-dihydroxy-7-methoxyisocumarin]", "values": [{"measurement": "inhibitory activity to cyclic adenosine monophosphate (CAMP) phosphodiesterase", "result": "inhibitory activity"}]}
